Among the data in patent publication US10758534B2 (Vertex Pharmaceuticals Incorporated, priority 2014, dated 2020) are EC30 values, retold here.

T1 sequence (P13569 with tags, fused parts or gaps DEL508-508): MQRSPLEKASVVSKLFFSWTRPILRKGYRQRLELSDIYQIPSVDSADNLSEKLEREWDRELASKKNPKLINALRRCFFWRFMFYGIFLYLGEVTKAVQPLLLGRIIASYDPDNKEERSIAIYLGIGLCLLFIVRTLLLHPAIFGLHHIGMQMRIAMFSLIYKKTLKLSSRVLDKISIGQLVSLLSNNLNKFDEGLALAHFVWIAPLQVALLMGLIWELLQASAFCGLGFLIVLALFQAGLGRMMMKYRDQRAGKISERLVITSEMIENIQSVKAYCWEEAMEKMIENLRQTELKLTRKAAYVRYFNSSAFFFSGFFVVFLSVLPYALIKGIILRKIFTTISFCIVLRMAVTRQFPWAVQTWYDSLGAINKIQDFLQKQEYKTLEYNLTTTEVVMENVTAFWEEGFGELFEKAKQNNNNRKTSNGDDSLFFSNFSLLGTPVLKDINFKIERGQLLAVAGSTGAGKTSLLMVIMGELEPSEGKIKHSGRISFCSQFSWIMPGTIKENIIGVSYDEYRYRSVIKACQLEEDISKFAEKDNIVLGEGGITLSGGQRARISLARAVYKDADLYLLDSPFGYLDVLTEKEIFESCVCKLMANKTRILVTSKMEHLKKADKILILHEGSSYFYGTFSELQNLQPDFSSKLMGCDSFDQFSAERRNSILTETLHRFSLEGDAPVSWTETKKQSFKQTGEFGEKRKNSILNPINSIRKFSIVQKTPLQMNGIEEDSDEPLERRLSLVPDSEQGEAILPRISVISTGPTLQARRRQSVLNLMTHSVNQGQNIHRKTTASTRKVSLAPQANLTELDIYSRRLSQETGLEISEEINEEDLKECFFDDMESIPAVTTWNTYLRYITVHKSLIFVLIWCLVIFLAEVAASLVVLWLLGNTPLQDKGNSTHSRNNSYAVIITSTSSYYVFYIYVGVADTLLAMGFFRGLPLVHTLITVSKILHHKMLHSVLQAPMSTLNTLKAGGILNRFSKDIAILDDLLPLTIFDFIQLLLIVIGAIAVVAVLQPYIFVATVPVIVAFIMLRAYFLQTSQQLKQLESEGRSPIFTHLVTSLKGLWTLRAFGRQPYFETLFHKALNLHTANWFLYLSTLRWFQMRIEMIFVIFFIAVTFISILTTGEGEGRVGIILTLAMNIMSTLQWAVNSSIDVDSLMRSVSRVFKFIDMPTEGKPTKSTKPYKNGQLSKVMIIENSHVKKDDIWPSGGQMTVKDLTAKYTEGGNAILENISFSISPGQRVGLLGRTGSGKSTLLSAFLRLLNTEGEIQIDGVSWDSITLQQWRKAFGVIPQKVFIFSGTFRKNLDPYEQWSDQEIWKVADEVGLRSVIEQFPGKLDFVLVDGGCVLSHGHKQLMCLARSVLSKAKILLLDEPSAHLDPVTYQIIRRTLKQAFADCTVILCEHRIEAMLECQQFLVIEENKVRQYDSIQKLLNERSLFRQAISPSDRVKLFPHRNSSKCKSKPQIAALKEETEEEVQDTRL

This assay concerns the target T1, F508del (Homo sapiens, UniProt P13569, DEL508-508).
T1 construct: expressed in transfected cells
Kind of assay: Protocol 1: membrane potential optical assay (FLIPR III, voltage sensing dye), identification of potentiator compounds. The format is cell-based. The following applies: Table 3, compounds of Table 1. In outline: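 NIH3T3 F508del cells, 27° C × 24 hrs; compound/DMSO pretreat → redistribution dye load → single forskolin addition with Cl⁻ gradient (gluconate-substituted bath, HEPES pH 7.4). FLIPR III membrane-potential fluorescence read.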
On to `CCOC(=O)/C=C/c1cc(C(=O)NS(=O)(=O)c2cccc(N)n2)c(N2C[C@@H](C)CC2(C)C)nc1C(C)(C)C` [Compound 1490, Ethyl (E)-3-[5-[(6-amino-2-pyridyl)sulfonylcarbamoyl]-2-tert-butyl-6-[(4S)-2,2,4-trimethylpyrrolidin-1-yl]-3-pyridyl]prop-2-enoate], for which the EC30 result is “+++ (“+++” means <3 uM)”. `CC(C)Oc1ccn(-c2ccc(C(=O)NS(=O)(=O)c3cccc(N)n3)c(N3C[C@@H](C)CC3(C)C)n2)n1` [Compound 1709, N-[(6-amino-2-pyridyl)sulfonyl]-6-(3-isopropoxypyrazol-1-yl)-2-[(4S)-2,2,4-trimethylpyrrolidin-1-yl]pyridine-3-carboxamide]: the EC30 entry is “+++ (“+++” means <3 uM)”. Take `Cc1cc(C)c(Oc2nc(C3=CCN(C(=O)OC(C)C)CC3)ccc2C(=O)NS(=O)(=O)c2cccc(N)n2)c(C)c1` [Compound 1366, isopropyl 4-[5-[(6-amino-2-pyridyl)sulfonylcarbamoyl]-6-(2,4,6-trimethylphenoxy)-2-pyridyl]-3,6-dihydro-2H-pyridine-1-carboxylate]: the EC30 result was “+++ (“+++” means <3 uM)”.

Consider `CC1CN(c2ncccc2C(=O)NS(=O)(=O)c2cccc(Nc3ccc(N(C)C)cc3)n2)C(C)(C)C1` (stereo not shown) [Compound 1757, N—[[6-[4-(dimethylamino)anilino]-2-pyridyl]sulfonyl]-2-(2,2,4-trimethylpyrrolidin-1-yl)pyridine-3-carboxamide], for which the EC30 entry is reported as “+++ (“+++” means <3 uM)”. For `Cc1ccc(-c2ccc(C(=O)NS(=O)(=O)c3cc[nH]n3)c(NCC3(C)CCOCC3)n2)cc1` [Compound 879, 2-[(4-methyltetrahydropyran-4-yl)methylamino]-6-(p-tolyl)-N-(1H-pyrazol-3-ylsulfonyl)pyridine-3-carboxamide] the value was “+ (“+” means greater than 10 uM)”; for `C[C@@H]1CN(c2nc(-c3cccc(F)c3)ccc2C(=O)NS(=O)(=O)c2ccc[nH]c2=O)C(C)(C)C1` [Compound 1925, 6-(3-fluorophenyl)-N-[(2-oxo-1H-pyridin-3-yl)sulfonyl]-2-[(4S)-2,2,4-trimethylpyrrolidin-1-yl]pyridine-3-carboxamide], “+++ (“+++” means <3 uM)”. Regarding `C[C@@H]1CN(c2nc(C3=CCOCC3)ccc2C(=O)NS(=O)(=O)c2cccc(N)n2)C(C)(C)C1` [Compound 1594, N-[(6-amino-2-pyridyl)sulfonyl]-6-(3,6-dihydro-2H-pyran-4-yl)-2-[(4S)-2,2,4-trimethylpyrrolidin-1-yl]pyridine-3-carboxamide], the EC30 entry is on record as “+++ (“+++” means <3 uM)”. `C[C@@H]1CN(c2nc(-c3cc(F)cc(OCC(C)(C)O)c3)ccc2C(=O)NS(=O)(=O)c2ccccc2)C(C)(C)C1` [Compound 1581, N-(benzenesulfonyl)-6-[3-fluoro-5-(2-hydroxy-2-methyl-propoxy)phenyl]-2-[(4S)-2,2,4-trimethylpyrrolidin-1-yl]pyridine-3-carboxamide]: the EC30 result is reported as “+++ (“+++” means <3 uM)”. Regarding `CC(C)Oc1ccccc1-c1ccc(C(=O)NS(=O)(=O)N2CC[C@H](N)C2)c(N2C[C@@H](C)CC2(C)C)n1` [Compound 1897, N-[(3S)-3-aminopyrrolidin-1-yl]sulfonyl-6-(2-isopropoxyphenyl)-2-[(4S)-2,2,4-trimethylpyrrolidin-1-yl]pyridine-3-carboxamide], the EC30 entry is given as “+++ (“+++” means <3 uM)”. With `CC(C)COc1cc(-c2ccc(C(=O)NS(=O)(=O)c3cccc(N)n3)c(N3CC(C)CC3(C)C)n2)ccc1Cl` (stereo not shown) [Compound 1021, N-[(6-amino-2-pyridyl)sulfonyl]-6-(4-chloro-3-isobutoxy-phenyl)-2-(2,2,4-trimethylpyrrolidin-1-yl)pyridine-3-carboxamide], the EC30 entry was “+++ (“+++” means <3 uM)”.

Consider `CCOc1cccc2c1CN(Cc1c(C)cc(C)cc1C)C2(C)C(=O)NS(=O)(=O)c1ccccn1` (stereo not shown) [Compound 1474, 4-ethoxy-1-methyl-N-(2-pyridylsulfonyl)-2-[(2,4,6-trimethylphenyl)methyl]isoindoline-1-carboxamide], for which the EC30 entry is on record as “+++ (“+++” means <3 uM)”. Regarding `CCOc1cccc2c1CN(Cc1ccccc1C)C2(C)C(=O)NS(=O)(=O)c1cccc(N)n1` (stereo not shown) [Compound 1408, N-[(6-amino-2-pyridyl)sulfonyl]-4-ethoxy-1-methyl-2-(o-tolylmethyl)isoindoline-1-carboxamide], the EC30 entry is given as “+++ (“+++” means <3 uM)”. Consider `CC1CN(c2ncccc2C(=O)NS(=O)(=O)c2cccc(OC(C)(C)C)n2)C(C)(C)C1` (stereo not shown) [Compound 1718, N-[(6-tert-butoxy-2-pyridyl)sulfonyl]-2-(2,2,4-trimethylpyrrolidin-1-yl)pyridine-3-carboxamide], for which the EC30 entry is recorded as “+++ (“+++” means <3 uM)”. As to `CC1CN(c2ncccc2C(=O)NS(=O)(=O)c2cccc(NCc3ccccc3Cl)n2)C(C)(C)C1` (stereo not shown) [Compound 1983, N—[[6-[(2-chlorophenyl)methylamino]-2-pyridyl]sulfonyl]-2-(2,2,4-trimethylpyrrolidin-1-yl)pyridine-3-carboxamide], the EC30 entry is listed as “+++ (“+++” means <3 uM)”. Consider `Cc1cc(C)c(Oc2nc(C3=CC(C)(C)OC3(C)C)ccc2C(=O)NS(=O)(=O)c2cccc(N)n2)c(C)c1` [Compound 1609, N-[(6-amino-2-pyridyl)sulfonyl]-6-(2,2,5,5-tetramethyl-3-furyl)-2-(2,4,6-trimethylphenoxy)pyridine-3-carboxamide], for which the EC30 entry is recorded as “+++ (“+++” means <3 uM)”. Regarding `C/C=C/COc1cccc(S(=O)(=O)NC(=O)c2cccnc2N2CC(C)CC2(C)C)n1` (stereo not shown) [Compound 1881, N—[[6-[(E)-but-2-enoxy]-2-pyridyl]sulfonyl]-2-(2,2,4-trimethylpyrrolidin-1-yl)pyridine-3-carboxamide], the EC30 result is reported as “+++ (“+++” means <3 uM)”. With `Cc1cc(C)c(Oc2nc(C(C)(C)C)ccc2C(=O)NS(=O)(=O)c2cccc(NCCN)n2)c(C)c1` [Compound 1054, N-[[6-(2-aminoethylamino)-2-pyridyl]sulfonyl]-6-tert-butyl-2-(2,4,6-trimethylphenoxy)pyridine-3-carboxamide], the EC30 result is on record as “+++ (“+++” means <3 uM)”. `CCC1CCCN(c2nc(-c3ccc(OC(C)C)nc3)ccc2C(=O)NS(=O)(=O)c2cccc(N)n2)C1` (stereo not shown) [Compound 1023, N-[(6-amino-2-pyridyl)sulfonyl]-2-(3-ethyl-1-piperidyl)-6-(6-isopropoxy-3-pyridyl)pyridine-3-carboxamide]: the EC30 entry is listed as “+++ (“+++” means <3 uM)”. Turning to `Cc1cc(C)c(Oc2cc(-c3cc(F)cc(OCC(C)C)c3)ccc2C(=O)NS(=O)(=O)c2cccc(N)n2)c(C)c1` [Compound 1549, N-[(6-amino-2-pyridyl)sulfonyl]-4-(3-fluoro-5-isobutoxy-phenyl)-2-(2,4,6-trimethylphenoxy)benzamide], the EC30 result was “+++ (“+++” means <3 uM)”.

Consider `CC1CN(c2nc(C(C)(C)C)c(Br)cc2C(=O)NS(=O)(=O)c2cccc(N)n2)C(C)(C)C1` (stereo not shown) [Compound 1628, N-[(6-amino-2-pyridyl)sulfonyl]-5-bromo-6-tert-butyl-2-(2,2,4-trimethylpyrrolidin-1-yl)pyridine-3-carboxamide], for which the EC30 result is listed as “+++ (“+++” means <3 uM)”.

Consider `COc1cccc(-c2ccc(C(=O)NS(=O)(=O)c3cccc(N)n3)c(Oc3c(C)cc(C)cc3C)n2)n1` [Compound 1034, N-[(6-amino-2-pyridyl)sulfonyl]-6-(6-methoxy-2-pyridyl)-2-(2,4,6-trimethylphenoxy)pyridine-3-carboxamide], for which the EC30 entry is “+++ (“+++” means <3 uM)”. As for `CC(C)(C)c1cc(C(=O)NS(=O)(=O)c2cccc(N)c2)n(Cc2cccc3cc[nH]c23)n1` [Compound 1256, N-(3-aminophenyl)sulfonyl-5-tert-butyl-2-(1H-indol-7-ylmethyl)pyrazole-3-carboxamide], the EC30 entry was “++ (“++” means between 3 uM and 10 uM)”. Take `CCOC1CCN(c2nc(-c3ccc(OC(C)C)nc3)ccc2C(=O)NS(=O)(=O)c2cccc(N)n2)CC1` [Compound 1214, N-[(6-amino-2-pyridyl)sulfonyl]-2-(4-ethoxy-1-piperidyl)-6-(6-isopropoxy-3-pyridyl)pyridine-3-carboxamide]: the EC30 entry is “++ (“++” means between 3 uM and 10 uM)”. For `C[C@@H]1CC[C@H](C)N1c1nc(-c2ccc(OCC(C)(C)C)nc2)ccc1C(=O)NS(=O)(=O)c1cccc(N)n1` [Compound 1270, N-[(6-amino-2-pyridyl)sulfonyl]-6-[6-(2,2-dimethylpropoxy)-3-pyridyl]-2-[(2S,5R)-2,5-dimethylpyrrolidin-1-yl]pyridine-3-carboxamide], the EC30 entry is recorded as “+++ (“+++” means <3 uM)”. On to `CC(C)(C)c1ccc(C(=O)NS(=O)(=O)c2cccc(N)n2)c(OC2CC3CCC2C3)n1` (stereo not shown) [Compound 1349, N-[(6-amino-2-pyridyl)sulfonyl]-6-tert-butyl-2-norbornan-2-yloxy-pyridine-3-carboxamide], for which the EC30 result is reported as “+++ (“+++” means <3 uM)”.

Take `CC1CN(c2ncccc2C(=O)NS(=O)(=O)c2cccc(NCc3nccs3)n2)C(C)(C)C1` (stereo not shown) [Compound 1865, N—[[6-(thiazol-2-ylmethylamino)-2-pyridyl]sulfonyl]-2-(2,2,4-trimethylpyrrolidin-1-yl)pyridine-3-carboxamide]: the EC30 entry is “++ (“++” means between 3 uM and 10 uM)”. `Cc1cc(OCC(C)C)ncc1-c1ccc(C(=O)NS(=O)(=O)c2cccc(N)n2)c(N2CC(C)CC2(C)C)n1` (stereo not shown) [Compound 851, N-[(6-amino-2-pyridyl)sulfonyl]-6-(6-isobutoxy-4-methyl-3-pyridyl)-2-(2,2,4-trimethylpyrrolidin-1-yl)pyridine-3-carboxamide]: the EC30 entry is reported as “+++ (“+++” means <3 uM)”.

As for `C[C@@H]1CN(c2nc(C(C)(C)C)c(C3=CCC(C(F)(F)F)CC3)cc2C(=O)NS(=O)(=O)c2cccc(N)n2)C(C)(C)C1` (stereo partly drawn) [Compound 1380, N-[(6-amino-2-pyridyl)sulfonyl]-6-tert-butyl-5-[4-(trifluoromethyl)cyclohexen-1-yl]-2-[(4S)-2,2,4-trimethylpyrrolidin-1-yl]pyridine-3-carboxamide], the EC30 result was “+++ (“+++” means <3 uM)”.
